Assays:
[1] = Chemical stability in PBS buffer at pH 4.8 assessed as compound hydrolysis at 20 mM measured after 7 hrs by RP-HPLC analysis; format: physicochemical; settings: read-out: Drug degradation
[2] = Chemical stability in PBS buffer at pH 11.1 assessed as compound hydrolysis at 20 mM measured upto 8 hrs by RP-HPLC analysis; format: physicochemical; settings: pH 11.1, 8 h, 20000 µM
[3] = Chemical stability in human serum assessed as compound hydrolysis at 20 mM measured upto 8 hrs by RP-HPLC analysis; format: physicochemical, cell-free; settings: 20000 µM
[4] = Chemical stability in PBS buffer at pH 6.8 assessed as compound hydrolysis at 20 mM measured after 7 hrs by RP-HPLC analysis; format: physicochemical; settings: read-out: Drug degradation

Q: What does the source list for `CCN(CC)CC.O=c1[nH]c(OP(=O)(O)Oc2ccccc2)nc2c1ncn2[C@@H]1O[C@H](CO)[C@@H](O)[C@H]1O`?
A: degraded at 7 h, 20000 µM [1]: 50%; Stability [2]: Stable; Stability [3]: Unstable; degraded at 7 h, 20000 µM [4]: 40%
